The results in this text go back to patent US20260337156A1, “SOLUBILIZING COMPOUNDS” (Vivesto AB, priority 2022, published 2026).

This data set can be described thus: particle size and polydispersity index of drug micelles over time (ZetaSizer). The class given is physicochemical. Particulars: for change of particle size and polydispersity index over time: 0-24 h. The method, then: Micellar size was measured using a ZetaSizer from Malvern Panalytical.
A stock solution of docetaxel in methanol was mixed with a stock solution of compound 1 in a round bottom flask. The mixture was evaporated to dryness in a rotary evaporator. Final drying was performed in a desiccator to remove residual solvent. Hydration of the dried film was performed by adding water for injection (1.0 mL) to a concentration of 1 mg/mL of docetaxel. The resulting solution was filtered through a 0.22 μm sterile filter and further diluted with 0.9% sodium chloride solution to 0.5 mg/mL of docetaxel. […]
A stock solution of cyclosporin in methanol was mixed with a stock solution of compound 1 in a round bottom flask. The mixture was evaporated to dryness in a rotary evaporator. Final drying was performed in a desiccator to remove residual solvent. Hydration of the dried film was performed by adding water for injection (1.0 mL) to a concentration of 1 mg/mL of cyclosporin. The resulting solution was filtered through a 0.22 μm sterile filter and further diluted with 0.9% sodium chloride solution to 0.5 mg/mL of cyclosporin. The final weight ratio of cyclosporin to micelle forming agent was 1:3.
A stock solution of docetaxel in methanol was mixed with a stock solution of compound 3 in a round bottom flask. The mixture was evaporated to dryness in a rotary evaporator. Final drying was performed in a desiccator to remove residual solvent. Hydration of the dried film was performed by adding water for injection (1.0 mL) to a concentration of 1 mg/mL of docetaxel. The resulting solution was filtered through a 0.22 μm sterile filter and further diluted with 0.9% sodium chloride solution to 0.5 mg/mL of Docetaxel. The final weight ratio of docetaxel to micelle forming agent was 1:3.
A stock solution of cyclosporin in methanol was mixed with a stock solution of compound 3 in a round bottom flask. The mixture was evaporated to dryness in a rotary evaporator. Final drying was performed in a desiccator to remove residual solvent. Hydration of the dried film was performed by adding water for injection (1.0 mL) to a concentration of 1 mg/mL of cyclosporin. The resulting solution was filtered through a 0.22 μm sterile filter and further diluted with 0.9% sodium chloride solution to 0.5 mg/mL of cyclosporin. The final weight ratio of cyclosporin to micelle forming agent was 1:3.
A stock solution of docetaxel in methanol was mixed with a stock solution of compound 4 in a round bottom flask. The mixture was evaporated to dryness in a rotary evaporator. Final drying was performed in a desiccator to remove residual solvent. Hydration of the dried film was performed by adding water for injection (1.0 mL) to a concentration of 1 mg/mL of docetaxel. The resulting solution was filtered through a 0.22 μm sterile filter and further diluted with 0.9% sodium chloride solution to 0.5 mg/mL of docetaxel. […]
A stock solution of docetaxel in methanol was mixed with a stock solution of compound 5 in a round bottom flask. The mixture was evaporated to dryness in a rotary evaporator. Final drying was performed in a desiccator to remove residual solvent. Hydration of the dried film was performed by adding water for injection (1.0 mL) to a concentration of 1 mg/mL of docetaxel. The resulting solution was filtered through a 0.22 μm sterile filter and further diluted with 0.9% sodium chloride solution to 0.5 mg/mL of docetaxel. The final weight ratio of docetaxel to micelle forming agent was 1:3.
A stock solution of cabazitaxel in methanol was mixed with a stock solution of compound 5 in a round bottom flask. The mixture was evaporated to dryness in a rotary evaporator. Final drying was performed in a desiccator to remove residual solvent. Hydration of the dried film was performed by adding water for injection (1.0 mL) to a concentration of 1 mg/mL of cabazitaxel. […]

The mark [1] stands for this setting: cabazitaxel:compound 1:3, cabazitaxel 0.5 mg/mL, time 0 h.
The mark [2] stands for this setting: cabazitaxel:compound 1:3, cabazitaxel 0.5 mg/mL, time 1 h.
[3] abbreviates: cabazitaxel:compound 1:3, cabazitaxel 0.5 mg/mL, time 2 h.
The mark [4] stands for this setting: cabazitaxel:compound 1:3, cabazitaxel 0.5 mg/mL, time 4 h.
[5] abbreviates: cabazitaxel:compound 1:3, cabazitaxel 0.5 mg/mL, time 6 h.
[6] abbreviates: cabazitaxel:compound 1:3, cabazitaxel 0.5 mg/mL, time 24 h.
Setting [7] is: docetaxel:compound 1:3, docetaxel 0.5 mg/mL.
Where [8] appears, read: docetaxel:compound 1:3, docetaxel 0.5 mg/mL, time 0 h.
The mark [9] stands for this setting: docetaxel:compound 1:3, docetaxel 0.5 mg/mL, time 1 h.
Where [10] appears, read: docetaxel:compound 1:3, docetaxel 0.5 mg/mL, time 2 h.
The mark [11] stands for this setting: docetaxel:compound 1:3, docetaxel 0.5 mg/mL, time 4 h.
The mark [12] stands for this setting: docetaxel:compound 1:3, docetaxel 0.5 mg/mL, time 6 h.
The mark [13] stands for this setting: docetaxel:compound 1:3, docetaxel 0.5 mg/mL, time 24 h.
Where [14] appears, read: docetaxel:compound 1:5, docetaxel 0.5 mg/mL, time 0 h.
The mark [15] stands for this setting: docetaxel:compound 1:5, docetaxel 0.5 mg/mL, time 1 h.
[16] abbreviates: docetaxel:compound 1:5, docetaxel 0.5 mg/mL, time 2 h.
Where [17] appears, read: docetaxel:compound 1:5, docetaxel 0.5 mg/mL, time 4 h.
Setting [18] is: docetaxel:compound 1:5, docetaxel 0.5 mg/mL, time 6 h.
Where [19] appears, read: docetaxel:compound 1:5, docetaxel 0.5 mg/mL, time 24 h.

In the case of `COc1cc(C)c(/C=C/C(C)=C/C=C/C(C)=C/C(=O)N(CCS(=O)(=O)[O-])CC(N)=O)c(C)c1C.[Na+]` [Compound 5], the “change of particle size and polydispersity index over time” value is “Small variations in the particle size and the polydispersity index over time were noted” (cabazitaxel:compound 1:3, cabazitaxel 0.5 mg/mL); “An increase in the particle size and very small variations of the polydispersity index over time were noted” under setting [7]. The Particle size reads like this: under setting [1], 93.83 nm; under setting [2], 98.08 nm; under setting [3], 102.2 nm; under setting [4], 106.6 nm; under setting [5], 108.8 nm; under setting [6], 83.42 nm. The Particle size under setting [8] is 59.40 nm; the Particle size under setting [9] stood at 66.24 nm; the Particle size under setting [10] is listed as 75.40 nm; the Particle size under setting [11] worked out at 82.19 nm; the Particle size under setting [12] is listed as 87.95 nm; the Particle size under setting [13] amounted to 105.7 nm. Moreover, the Polydispersity index reads like this: under setting [1], 0.19; under setting [2], 0.20; under setting [3], 0.21; under setting [4], 0.20; under setting [5], 0.21; under setting [6], 0.39. Besides, the Polydispersity index under setting [8] came to 0.17; the Polydispersity index under setting [9] turned out to be 0.16; the Polydispersity index under setting [10] stood at 0.14; the Polydispersity index under setting [11] is given as 0.13; the Polydispersity index under setting [12] was found to be 0.13; the Polydispersity index under setting [13] is 0.14.
With `COc1cc(C)c(/C=C/C(C)=C/C=C/C(C)=C/C(=O)N(C)[C@H]2CC[C@H](CS(=O)(=O)[O-])CC2)c(C)c1C.[Na+]` [Compound 7], under setting [7], the “change of particle size and polydispersity index over time” value is “Small variations in the particle size and the polydispersity index over time were noted”. The Particle size runs as follows: under setting [8], 100.8 nm; under setting [9], 97.60 nm; under setting [10], 97.60 nm; under setting [11], 96.90 nm; under setting [12], 99.12 nm; under setting [13], 96.76 nm. Moreover, the Polydispersity index turned out to be 0.23 under setting [8]; 0.24 under setting [9]; 0.24 under setting [10]; 0.25 under setting [11]; 0.25 under setting [12]; 0.26 under setting [13].
On to `COc1cc(C)c(/C=C/C(C)=C/C=C/C(C)=C/C(=O)N2CCN(C(=O)c3ccc(S(=O)(=O)[O-])cc3)CC2)c(C)c1C.[K+]` [Compound 9], for which the “change of particle size and polydispersity index over time” value under setting [7] was “Increase in the particle size and small variations the polydispersity index over time were noted”. In addition, the Particle size was determined as 89.91 nm under setting [8]; 97.93 nm under setting [9]; 103.8 nm under setting [10]; 113.0 nm under setting [11]; 118.6 nm under setting [12]; 122.0 nm under setting [13]. The same compound returned a Polydispersity index under setting [8] of 0.20; a Polydispersity index under setting [9] of 0.20; a Polydispersity index under setting [10] of 0.20; a Polydispersity index under setting [11] of 0.17; a Polydispersity index under setting [12] of 0.17; a Polydispersity index under setting [13] of 0.22.
Regarding `COc1cc(C)c(/C=C/C(C)=C/C=C/C(C)=C/C(=O)N2CCN(c3ccc(S(=O)(=O)[O-])cc3)CC2)c(C)c1C.[Na+]` [Compound 6], the “change of particle size and polydispersity index over time” value under setting [7] was “Small variations in the particle size and the polydispersity index over time were noted”. Further, the Particle size is listed as 61.37 nm under setting [8]; 61.27 nm under setting [9]; 64.21 nm under setting [10]; 67.34 nm under setting [11]; 69.84 nm under setting [12]; 66.18 nm under setting [13]. Moreover, the Polydispersity index is on record as 0.22 under setting [8]; 0.28 under setting [9]; 0.28 under setting [10]; 0.28 under setting [11]; 0.28 under setting [12]; 0.38 under setting [13].
As for `COc1cc(C)c(/C=C/C(C)=C/C=C/C(C)=C/C(=O)N(CCO)Cc2ccc(N)cc2S(=O)(=O)[O-])c(C)c1C.[Na+]` [Compound 10], for the setting “docetaxel:compound 1:5, docetaxel 0.5 mg/mL”, the “change of particle size and polydispersity index over time” value is “Increase in the particle size and minor decrease the polydispersity index over time were noted”. The same compound yielded a Particle size under setting [14] of 52.29 nm; a Particle size under setting [15] of 62.51 nm; a Particle size under setting [16] of 70.07 nm; a Particle size under setting [17] of 78.98 nm; a Particle size under setting [18] of 85.10 nm; a Particle size under setting [19] of 107.4 nm. Moreover, the Polydispersity index is given as 0.16 under setting [14]; 0.13 under setting [15]; 0.12 under setting [16]; 0.12 under setting [17]; 0.10 under setting [18]; 0.10 under setting [19].
Regarding `COc1cc(C)c(/C=C/C(C)=C/C=C/C(C)=C/C(=O)N2CCC(CCS(=O)(=O)[O-])CC2)c(C)c1C.[Na+]` [Compound 8], the “change of particle size and polydispersity index over time” value under setting [7] was “Increase in the particle size and small variations the polydispersity index over time were noted”. Further, the Particle size runs as follows: under setting [8], 55.38 nm; under setting [9], 70.34 nm; under setting [10], 75.90 nm; under setting [11], 83.10 nm; under setting [12], 87.94 nm; under setting [13], 105.0 nm. Also, the Polydispersity index is, setting by setting: under setting [8], 0.20; under setting [9], 0.15; under setting [10], 0.13; under setting [11], 0.11; under setting [12], 0.12; under setting [13], 0.16.
